Laboratory results taken from patent US20110237629A1, “AMINO ACID ESTER PRODRUGS AND THE USE THEREOF” (Bayer Schering Pharma Aktiengesellschaft, priority 2008, published 2011).
Where a name gives a salt, the structure may show the parent alone.

Experiments:
Type in all cases: physicochemical
[1] = Determination of the solubility (suspension shaken 24 h at room temperature, HPLC of supernatant); settings: thermodynamic from solid
Experimental: The test substance is suspended in water or dilute hydrochloric acid (pH 4) or in 5% strength aqueous dextrose solution. This suspension is shaken at room temperature for 24 h. After ultracentrifugation at 224 000 g for 30 min, the supernatant is diluted with DMSO and analysed by HPLC. A two-point calibration plot of the test compound in DMSO is used for quantification.
Agilent 1100 with DAD (G1315A), quat. Pump (G1311A), autosampler CTC HTS PAL, degasser (G1322A) and column thermostat (G1316A); column: Phenomenex Gemini C18, 5 μm, 50 mm×2 mm; temperature: 40° C.; eluent A: water/phosphoric acid pH 2, eluent B: acetonitrile; flow rate: 0.7 ml/min; gradient: 0-0.5 min 85% A, 15% B; ramp 0.5-3 min 10% A, 90% B; 3-3.5 min 10% A, 90% B; ramp 3.5-4 min 85% A, 15% B; 4-5 min 85% A, 15% B.
Agilent 1100 with DAD (G1315A), quat. pump (G1311A), autosampler CTC HTS PAL, degasser (G1322A) and column thermostat (G1316A); column: VDSoptilab Kromasil 100 C18, 3.5 μm, 60 mm×2.1 mm; temperature: 30° C.; eluent A: water+5 ml of perchloric acid/liter, eluent B: acetonitrile; flow rate: 0.75 ml/min; gradient: 0-0.5 min 98% A, 2% B; ramp 0.5-4.5 min 10% A, 90% B; 4.5-6 min 10% A, 90% B; ramp 6.5-6.7 min 98% A, 2% B; 6.7-7.5 min 98% A, 2% B.
The solubilities of representative exemplary embodiments in dilute hydrochloric acid (pH 4) are shown in Table1: […]

[2] = Stability in buffer at various pH values
Experimental: 0.3 mg of the test substance is weighed into a 2 ml HPLC vial and 0.5 ml of acetonitrile or acetonitrile/DMSO (9:1) is added. The substance is dissolved by putting the sample vessel in an ultrasonic bath for about 10 seconds. Then 0.5 ml of the respective buffer solution is added, and the sample is again treated in the ultrasonic bath.
(Buffer) solutions employed:
pH 4: 1 liter of Millipore water is adjusted to pH 4.0 with 1 N hydrochloric acid;
pH 5: 0.096 mol of citric acid and 0.2 mol of sodium hydroxide ad 1 liter of water;
pH 7.4: 90.0 g of sodium chloride, 13.61 g of potassium dihydrogen phosphate and 83.35 g of 1 N sodium hydroxide solution are made up to 1 liter with water; this solution is then further diluted 1:10 with Millipore water.
pH 8: 0.013 mol of borax and 0.021 mol of hydrochloric acid ad 1 liter of water.
5 μl portions of the test solution are analyzed by HPLC for their content of unchanged test substance, and of basic mother substance of the formula (A) formed, every hour over a period of 24 hours at 37° C. The percentage areas of the appropriate peaks are used for quantification.
HPLC method for example 1:
(§1) Agilent 1100 with DAD (G1315B), binary pump (G1312A), autosampler (G1329A), column oven (G1316A), thermostat (G1330B); column: Kromasil 100 C18, 125 mm×4 mm, 5 μm; column temperature: 30° C.; eluent A: water+5 ml perchloric acid/liter, eluent B: acetonitrile; gradient: 0 min 90% A→2.0 min 70% A→18.0 min 70% A 20.0 min 10% A→21.0 min 10% A→23.0 min 90% A→26.0 min 90% A; flow rate: 2.0 ml/min;
HPLC method for example 3:
as §1, with “(G1314A),” for “(G1315B),”, “(G1330A);” for “(G1330B);”, “64%” for “70%”, “64% A→20.0” for “70% A 20.0”, “ml/min UV detection: 294 nm.” for “ml/min;”
HPLC method for example 11:
as §1, with “ml of” for “ml”, “64%” for “70%”, “64% A→20.0” for “70% A 20.0”, “ml/min; UV detection: 294 nm.” for “ml/min;”
HPLC method for example 14:
Agilent 1100 with DAD (G1315B), binary pump (G1312A), autosampler (G1329A), column oven (G1316A), thermostat (G1330B); column: Kromasil 100 C18, 250 mm×4 mm, 5 μm; column temperature: 30° C.; eluent A: water+5 ml of perchloric acid/liter, eluent B: acetonitrile; gradient: 0 min 90% A→7.0 min 52% A→18.0 min 52% A→20.0 min 10% A→21.0 min 10% A→23.0 min 90% A -4 26.0 min 90% A; flow rate: 2.0 ml/min; UV detection: 288 nm.
HPLC method for example 18:
Agilent 1100 with DAD (G1315A), binary pump (G1312A), autosampler (G1329A), column oven (G1316A), thermostat (G1330A); column: Kromasil 100 C18, 125 mm×4 mm, 5 μm; column temperature: 30° C.; eluent A: water+5 ml of perchloric acid/liter, eluent B: acetonitrile; gradient: 0 min 90% A→6.0 min 61% A→18.0 min 61% A→20.0 min 10% A→21.0 min 10% A→23.0 min 90% A→26.0 min 90% A; flow rate: 2.0 ml/min; UV detection: 294 nm.
The ratios of the peak areas (F) at the respective time points in relation to the peak areas at the starting time are shown in Table 3 for representative exemplary embodiments: […]

[3] = Determination of the solubility (suspension shaken 24 h at room temperature, HPLC of supernatant); settings: 0.1 M hydrochloric acid, simulated gastric fluid, thermodynamic from solid
[4] = saline or isotonic, 5% strength aqueous dextrose solution

| SMILES | solubility at 24 h [1, 4] [µg/mL] | % test substance after 4 h [F(t = 4 h) × 100/F(t = 0 h)] ([2]; pH 4, 37° C.) [%] | % test substance after 24 h [F(t = 24 h) × 100/F(t = 0 h)] ([2]; pH 4, 37° C.) [%] | % test substance after 4 h [F(t = 4 h) × 100/F(t = 0 h)] ([2]; pH 7.4, 37° C.) [%] | % test substance after 24 h [F(t = 24 h) × 100/F(t = 0 h)] ([2]; pH 7.4, 37° C.) [%] | further results |
| --- | --- | --- | --- | --- | --- | --- |
| CC(C)[C@H](N)C(=O)OC[C@@H](COc1ccc(-c2c(C#N)c(N)nc(SCc3coc(-c4ccc(Cl)cc4)n3)c2C#N)cc1)OC(=O)[C@@H](N)C(C)C [Example 10, (2R)-3-{4-[2-Amino-6-({[2-(4-chlorophenyl)-1,3-oxazol-4-yl]methyl}sulphanyl)-3,5-dicyanopyridin-4-yl]phenoxy}propane-1,2-diyl(2S,2′S)-bis(2-amino-3-methylbutanoate)-dihydro-chloride] | > 500 | – | – | – | – | – |
| N#Cc1c(N)nc(SCc2coc(-c3ccc(Cl)cc3)n2)c(C#N)c1-c1ccc(OC[C@@H](COC(=O)[C@@H](N)CCCCN)OC(=O)[C@@H](N)CCCCN)cc1 [Example 13, (2S)-3-{4-[2-Amino-6-({[2-(4-chlorophenyl)-1,3-oxazol-4-yl]methyl}sulphanyl)-3,5-dicyanopyridin-4-yl]phenoxy)propane-1,2-diyl(2S,2′S)-bis(2,6-diaminohexanoate)dihydrochloride] | 710 | – | – | – | – | – |
| N#Cc1c(N)nc(SCc2coc(-c3ccc(Cl)cc3)n2)c(C#N)c1-c1ccc(OC[C@@H](COC(=O)CCCN)OC(=O)CCCN)cc1 [Example 14, (2S)-3-{4-[2-Amino-6-({[2-(4-chlorophenyl)-1,3-oxazol-4-yl]methyl}sulphanyl)-3,5-dicyanopyridin-4-yl]phenoxy}propane-1,2-diyl bis(4-aminobutanoate)dihydrochloride] | 540 | 97 | 92 | 93 | 74 | – |
| C[C@@H](N)C(=O)OC[C@H](COc1ccc(-c2c(C#N)c(N)nc(SCc3coc(-c4ccc(Cl)cc4)n3)c2C#N)cc1)OC(=O)[C@@H](C)N [Example 9, (2S)-3-{4-[2-Amino-6-({[2-(4-chlorophenyl)-1,3-oxazol-4-yl]methyl}sulfanyl)-3,5-dicyanopyridin-4-yl]phenoxy}propane-1,2-diyl(2R,2′R)-bis(2-aminopropanoate)dihydrochloride] | – | – | – | – | – | solubility at 24 h ([1]; aqueous buffer, dilute hydrochloric acid (pH 4)): 535 µg/mL |
| CC(C)[C@H](N)C(=O)OC[C@H](COc1ccc(-c2c(C#N)c(N)nc(SCc3coc(-c4ccc(Cl)cc4)n3)c2C#N)cc1)OC(=O)[C@@H](N)C(C)C [Example 16, (2S)-3-{4-[2-Amino-6-({[2-(4-chlorophenyl)-1,3-oxazol-4-yl]methyl}sulphanyl)-3,5-dicyanopyridin-4-yl]phenoxy}propane-1,2-diyl(2S,2′S)-bis(2-amino-3-methylbutanoate)bis(trifluoroacetic acid) salt] | 250 | – | – | – | – | – |
| N#Cc1c(N)nc(SCc2coc(-c3ccc(Cl)cc3)n2)c(C#N)c1-c1ccc(OC[C@@H](COC(=O)CCCCCN)OC(=O)CCCCCN)cc1 [Example 15, (2S)-3-{4-[2-Amino-6-({[2-(4-chlorophenyl)-1,3-oxazol-4-yl]methyl}sulphanyl)-3,5-dicyanopyridin-4-yl]phenoxy}propane-1,2-diyl bis(6-aminohexanoate) dihydrochloride] | 830 | – | – | – | – | – |

More lines, main results first:

| solubility at 24 h [1, 4] [µg/mL] | % test substance after 4 h [F(t = 4 h) × 100/F(t = 0 h)] ([2]; pH 4, 37° C.) [%] | % test substance after 24 h [F(t = 24 h) × 100/F(t = 0 h)] ([2]; pH 4, 37° C.) [%] | % test substance after 4 h [F(t = 4 h) × 100/F(t = 0 h)] ([2]; pH 7.4, 37° C.) [%] | % test substance after 24 h [F(t = 24 h) × 100/F(t = 0 h)] ([2]; pH 7.4, 37° C.) [%] | SMILES | further results |
| --- | --- | --- | --- | --- | --- | --- |
| – | 99 | 99 | 93 | 67 | N#Cc1c(N)nc(SCc2coc(-c3ccc(Cl)cc3)n2)c(C#N)c1-c1ccc(OC[C@@H](COC(=O)CN)OC(=O)CN)cc1 [Example 3, (2S)-3-{4-[2-Amino-6-({[2-(4-chlorophenyl)-1,3-oxazol-4-yl]methyl}sulphanyl)-3,5-dicyanopyridin-4-yl]phenoxy}propane-1,2-diyl bis(aminoacetate) dihydrochloride] | – |
| 330 | – | – | – | – | CC(C)C[C@H](N)C(=O)OC[C@H](COc1ccc(-c2c(C#N)c(N)nc(SCc3coc(-c4ccc(Cl)cc4)n3)c2C#N)cc1)OC(=O)[C@@H](N)CC(C)C [Example 17, (2S)-3-{4-[2-Amino-6-({[2-(4-chlorophenyl)-1,3-oxazol-4-yl]methyl}sulphanyl)-3,5-dicyanopyridin-4-yl]phenoxy}propane-1,2-diyl(2S,2′S)-bis(2-amino-4-methylpentanoate)bis(trifluoroacetic acid) salt] | – |
| 240 | 100 | 95 | 95 | 72 | C[C@@H](O)[C@H](N)C(=O)OC[C@H](COc1ccc(-c2c(C#N)c(N)nc(SCc3coc(-c4ccc(Cl)cc4)n3)c2C#N)cc1)OC(=O)[C@@H](N)[C@@H](C)O [Example 18, (2S)-3-{4-[2-Amino-6-({[2-(4-chlorophenyl)-1,3-oxazol-4-yl]methyl}sulfanyl)-3,5-dicyanopyridin-4-yl]phenoxy}propane-1,2-diyl(2S,3R,2′S,3′R)-bis(2-amino-3-hydroxybutanoate)bis(trifluoroacetic acid) salt] | – |
| – | 96 | 96 | 84 | 44 | C[C@H](N)C(=O)OC[C@@H](COc1ccc(-c2c(C#N)c(N)nc(SCc3coc(-c4ccc(Cl)cc4)n3)c2C#N)cc1)OC(=O)[C@H](C)N [Example 11, (2R)-3-{4-[2-Amino-6-({[2-(4-chlorophenyl)-1,3-oxazol-4-yl]methyl}sulphanyl)-3,5-dicyanopyridin-4-yl]phenoxy}propane-1,2-diyl(2S,2′S)-bis(2-aminopropanoate)dihydrochloride] | – |
| < 1.2 | – | – | – | – | N#Cc1c(N)nc(SCc2coc(-c3ccc(Cl)cc3)n2)c(C#N)c1-c1ccc(OC[C@H](O)CO)cc1 [Example 8A, 2-Amino-6-({[2-(4-chlorophenyl)-1,3-oxazol-4-yl]methyl}sulfanyl)-4-(4-{[(2R)-2,3-dihydroxypropyl]oxy}phenyl)pyridine-3,5-dicarbonitrile, reference compound] | solubility at 24 h [3]: < 0.1 µg/mL |
